The values below are quoted from earlier work in US9133185B2, “Heteroaryl derivatives” (CHIESI FARMACEUTICI S.P.A., priority 2013, dated 2015).

Data set [1] deals with COPD patients.
For data set [2], the system named is smoking model of COPD in mice.
[3] abbreviates: COPD patients, 500 mg once daily, given over 12 months.
[4] abbreviates: COPD patients, oral, given over 4 weeks.
Where [5] appears, read: patients with severe disease who have frequent exacerbations and mucus hypersecretion.

For the compound `O=C(Nc1c(Cl)cncc1Cl)c1ccc(OC(F)F)c(OCC2CC2)c1` [Roflumilast, roflumilast], in data set [1] (setting [3]), the lung function result is “improved lung function in COPD patients to a small extent” and the “reducing exacerbations or improving quality of life” value was “little effect”. In data set [1] (setting [4]), the “CXCL8 concentrations in sputum” value is on record as “significantly reduces” and the “reduction of the numbers of neutrophils in sputum” value is listed as 36%. Further, in data set [1] (setting [5]), the “improvement of FEV 1” value is “approximately 50 mL” and the reduction of exacerbation entry is “about 15%”. Besides, the “lung inflammation and emphysema” value in data set [2] is “inhibits lung inflammation and emphysema”.
